US20240252586A1, “ENGINEERED ANTIMICROBIAL PEPTIDES AND USAGE THEREOF” (priority 2021, published 2024)
Values joined by “and” are separate entries in the source; they are usually repeats but may differ in a detail not shown here. Equal values may be shown once. Read-outs that look alike come from different tables or passages of the source.

Assays:
E. Coli ATCC 25922 = test system: E. Coli ATCC 25922
Procedure: (§1) SEQ ID NO: 1 stocks were made at 5.12 mg/mL in water adjusted to pH of 5.0 with 1% glacial acetic acid.
(§2) The test organisms (Table 7) consisted of clinical isolates from the Micromyx (MMX) repository, a reference isolate from the American Type Culture Collection (ATCC, Manassas, VA) and the Centers for Disease Control (CDC, Atlanta GA). Upon initial receipt, the isolates were streaked under suitable conditions onto agar medium appropriate to each organism. The organisms were incubated for 18-24 hr at 35° C. in ambient atmosphere. Colonies harvested from these growth plates were resuspended in the appropriate medium containing a cryoprotectant. Aliquots of each suspension were then stored frozen at −80° C. Prior to testing, all organisms were cultured onto trypticase soy agar containing 5% sheep blood. The agar plates were incubated as described above.
(§3) The Test media used for MIC and FIC were testing were cation-adjusted Mueller-Hinton broth (CAMHB) and Roswell Park Memorial Institute (RPMI-1640), buffered with 3-(N-morpholino)propanesulfonic acid (MOPS). Each test media was supplemented with 0.002% Tween-80 (P-80) prior to testing.
(§4) MIC assay plates were prepared for broth microdilution in accordance with guidelines from the Clinical and Laboratory Standards Institute (CLSI); automated liquid handlers (Biomek 3000 and Biomek FX) and multi-channel pipettes were used to conduct serial dilutions and liquid transfers. MIC assay plates were prepared using a 96-well, deep-well microdilution plate that mimicked the layout of the daughter plates.
(§5) For the mother plate, wells across the standard 96-well microdilution plate were filled with 150 μL of sterile saline 0.002% P-80 in columns 2 through 12. […] The Biomek 300 was used to make eleven 2-fold serial dilutions horizontally across each row of the plate from columns 2 through 11. The Biomek FX was then used to transfer 5 μL of the SEQ ID NO: 1 and saline 0.002% P-80 to the daughter plates.
(§6) A standardized inoculum of each organism was prepared per CLSI methods. Suspensions were prepared to equal a 0.5 McFarland standard followed by a 1:10 dilution into test medium. The inocula were dispensed into sterile reservoirs divided by length and the Biomek 3000 was used to inoculate the plates. Daughter plates were placed on the Biomek 3000 work surface in reverse orientation so that inoculation took place from low to high drug concentration. The Biomek 3000 delivered 10 μL of the diluted suspension into each well. These inoculations yielded a final cell concentration in the daughter plates of approximately 5×10^5 CFU/mL in each well. Plates were incubated at 35° C. for 16-20 hr. The microplates were viewed from the bottom using a plate viewer and the MIC was recorded as the lowest concentration of drug that inhibited visible growth of the organism.

E. Coli ATCC BAA-2469 = test system: E. Coli ATCC BAA-2469
Procedure: as §1, §2, §3, §4, §5, §6

E. Coli CDC 0451 = test system: E. Coli CDC 0451
Procedure: as §1, §2, §3, §4, §5, §6

P. aeruginosa ATCC 27853 = test system: P. aeruginosa ATCC 27853
Procedure: as §1, §2, §3, §4, §5, §6

P. aeruginosa CDC 0509 = test system: P. aeruginosa CDC 0509
Procedure: as §1, §2, §3, §4, §5, §6

P. aeruginosa CDC 0515 [1] = test system: P. aeruginosa CDC 0515
Procedure: as §1, §2, §3, §4, §5, §6

S. aureus ATCC 29213 = test system: S. aureus ATCC 29213
Procedure: as §1, §2, §3, §4, §5, §6

S. aureus NRS 382 = test system: S. aureus NRS 382
Procedure: as §1, §2, §3, §4, §5, §6

S. aureus NRS 384 = test system: S. aureus NRS 384
Procedure: as §1, §2, §3, §4, §5, §6

S. epidermidis MMX 3628 = test system: S. epidermidis MMX 3628
Procedure: as §1, §2, §3, §4, §5, §6

S. epidermidis MMX 5129 = test system: S. epidermidis MMX 5129
Procedure: as §1, §2, §3, §4, §5, §6

S. epidermidis MMX 8655 = test system: S. epidermidis MMX 8655
Procedure: as §1, §2, §3, §4, §5, §6

P. aeruginosa CDC 0515 [2] = conditions: for FICA / MICA: RPMI; for MICA: in combination with SEQ ID NO: 1
Procedure: FIC test ranges were set based on broth microdilution MIC test data. FIC assay plates were prepared in accordance with CLSI guidelines for broth microdilution susceptibility testing; automated liquid handlers, and multi-channel pipettes were used to conduct serial dilutions and liquid transfers.
SEQ ID NO: 1 was tested at two concentration ranges depending on the test media. All organisms tested in CAMHB 0.002% P-80 were tested from 0.015-16 μg/mL; when tested in RPMI 0.002% P-80, the range tested was 0.004-4 μg/mL. For each SEQ ID NO: 1 mother, wells across the standard 96-well microdilution plate were filled with 150 μL of sterile saline 0.002% P-80 in columns 2 through 12. A 300 μL aliquot at 20× the highest final concentration of each dilution range to be tested, was added to each well in column 1 of the plate. The Biomek 3000 was used to make eleven 2-fold serial dilutions horizontally across each row of the plate columns 2 through 11.
The daughter plates were then completed using the Biomek FX to transfer 5 μL of drug solution from each well of the SEQ ID NO: 1 mother plates to the corresponding well in each daughter plate in a single step. […] The preparation of the daughter plates was performed for each media type; two times in total as all organisms were tested in both media types.
A standard inoculum for each organism was prepared per CLSI method. Colonies were picked up from the primary plate and a suspension was prepared equal to 0.5 McFarland turbidity standard. The suspensions were additionally diluted 1:10 in the appropriate broth. A 10 μL standardized inoculum was delivered into each well using the Biomek 3000 from low to high concentration. These inoculations yielded a final cell concentration in the daughter plates of approximately 5×10^5 CFU/mL in each well. […] Exemplary checkboard panels are seen in Table 5 and Table 6. Plates were incubated at 35° C. for 16-20 hr.
The MIC of the horizontal agent (row H) and the MIC of the vertical agent (column 12) were recorded and the wells of the growth-no growth interface for wells containing agents in combination at varying ratios were recorded by row. […] Pinpoint trailing was not interpreted as growth.
For each relevant row of the panel, the FICI was calculated as:
FICdrug A/MICdrug A+FICdrug B/MICdrug=FICI
Mean FICI values were determined for each combination tested by averaging the FICI values as observed on each row of the checkerboard assay (See Table 9, e.g., if there were FICI values for B-G, those FICI values were added together and divided by the number of rows the FICI values which in this case is 6 to get the mean FICI value for that combination).
Using the criteria described by: Odds FC. 2003. Synergy, antagonism, and what the chequerboard puts between them. J Antimicrob Chemother 52(1):1, the mean FICI for the combination was interpreted as follows: ≤0.5=synergy, >0.5-4=additive/indifferent, and >4=antagonism. […] An interpretation of indifference is consistent with growth inhibition at concentrations at or slightly below/above the MICs of the individual agents alone, resulting in a FICI value of >0.5 but […].

[3] = test system: Staphylococcus aureus NRS 382 (USA100 MRSA) biofilm; test: Wire biofilm time-kill assay (Study 3); type: cell-based; conditions: 150 mM sodium bicarbonate, 1 mg/mL; for CFU/mL: per replicate
Excerpt: Study 3. […]
These three vehicles without SEQ ID NO: 1 served as the untreated controls. Double strength Dey/Engley neutralizing broth was used as a neutralizer for dilution and plating during determination of colony-forming units (CFU)/mL at each time point.
In order to establish the biofilm on the wires, the following procedure was followed: An overnight culture of each isolate was made in Tryptic soy broth. K-wires that were cut to 6 mm and sterilized by autoclaving were placed in 24 well plates and inoculated with 1 mL of a normalized bacterial suspension containing approximately 1×10^6 CFU/mL in cation-adjusted Mueller-Hinton broth. The plates containing the wires were incubated for 24 hr at 35° C. followed by removing the planktonic cells by carefully pipetting the medium from the wells. Fresh CAMHB (1 mL) was added to the wells containing the wires and the plates were incubated for an additional 24 hr at 35° C.
After the biofilm was established, the wires were removed from the wells using sterile forceps, rinsed with 1 mL of PBS, and placed in the appropriate treatment well containing 0, 1, 5, or 10 mg/mL SEQ ID NO: […] After the designated time, each wire was removed, rinsed with 1 mL of PBS, and then placed in an Eppendorf tube with 1 mL of double strength Dey-Engley medium. The wires were then sonicated at room temperature for 10 min to dislodge bacteria using a Lab Line Instruments sonicator at a setting of 100%.
A 0.2 mL aliquot of sonicate was removed and pipetted into column 1 of a 96-well plate that contained 180 μL of double strength Dey-Engley medium in columns 2 through 5. […] The plate was then tilted at a […] to allow the diluted sample to track across the agar surface to the opposite side of the plate. The plates were laid flat, allowed to dry at room temperature, then inverted and incubated at 35° C. for approximately 24 hr. Colonies were manually counted to determine the viable count in CFU/mL.

## O=C([O-])O.[Na+] [Sodium Bicarbonate]
E. Coli ATCC 25922; CAMHB
  MIC: 200 mM
E. Coli ATCC 25922; RPMI
  MIC: 200 mM
E. Coli ATCC BAA-2469; CAMHB
  MIC: 200 mM
E. Coli ATCC BAA-2469; RPMI
  MIC: 200 mM
E. Coli CDC 0451; CAMHB
  MIC: 100 mM
E. Coli CDC 0451; RPMI
  MIC: 200 mM
P. aeruginosa ATCC 27853; CAMHB
  MIC: 200 mM
P. aeruginosa ATCC 27853; RPMI
  MIC: 200 mM
P. aeruginosa CDC 0509; CAMHB
  MIC: 200 mM
P. aeruginosa CDC 0509; RPMI
  MIC: 200 mM
P. aeruginosa CDC 0515 [1]; CAMHB
  MIC: 200 mM
P. aeruginosa CDC 0515 [1]; RPMI
  MIC: 200 mM
S. aureus ATCC 29213; CAMHB
  MIC: >200 mM
S. aureus ATCC 29213; RPMI
  MIC: 200 mM
S. aureus NRS 382; CAMHB
  MIC: 200 mM
S. aureus NRS 382; RPMI
  MIC: 200 mM
S. aureus NRS 384; CAMHB
  MIC: 200 mM
S. aureus NRS 384; RPMI
  MIC: 200 mM
S. epidermidis MMX 3628; CAMHB
  MIC: 100 mM
S. epidermidis MMX 3628; RPMI
  MIC: 200 mM
S. epidermidis MMX 5129; CAMHB
  MIC: 200 mM
S. epidermidis MMX 5129; RPMI
  MIC: 200 mM
S. epidermidis MMX 8655; CAMHB
  MIC: 200 mM
S. epidermidis MMX 8655; RPMI
  MIC: 200 mM
P. aeruginosa CDC 0515 [2]; CAMHB, alone
  Drug A MIC: > 100
P. aeruginosa CDC 0515 [2]; checkerboard row A
  FICA: 0.5
  MICA: 100
P. aeruginosa CDC 0515 [2]; checkerboard row B
  FICA: 0.25
  MICA: 50
P. aeruginosa CDC 0515 [2]; checkerboard row C
  FICA: 0.125
  MICA: 25
P. aeruginosa CDC 0515 [2]; checkerboard row D
  FICA: 0.063
  MICA: 12.5
P. aeruginosa CDC 0515 [2]; checkerboard row E
  FICA: 0.031
  MICA: 6.25
P. aeruginosa CDC 0515 [2]; checkerboard row F
  FICA: 0.016
  MICA: 3.12
P. aeruginosa CDC 0515 [2]; checkerboard row G
  FICA: 0.008
  MICA: 1.56

## SEQ ID: 1 (RRWVRRVRRVWRRVVRVVRRWVRR)
[3]; 0 min
  Mean CFU/mL: 1.08E+5 CFU/mL
  CFU/mL: 4.80E+04 CFU/mL and 1.50E+05 CFU/mL and 1.25E+05 CFU/mL
[3]; 1 min
  Mean CFU/mL: 1.68E+3 CFU/mL
  CFU/mL: 8.00E+02 CFU/mL and 3.15E+03 CFU/mL and 1.10E+03 CFU/mL
[3]; 5 min
  CFU/mL 2: 0 CFU/mL
  Mean CFU/mL: 5.00E+1 CFU/mL
  CFU/mL: 5.00E+01 CFU/mL
[3]; […]
  CFU/mL 2: 1.00E+02 CFU/mL
  Mean CFU/mL: 1.17E+2 CFU/mL
